Activity calls are given as the source filed them.
Key:
[1] = inhibitors of firefly luciferase expression or activity, dose response, H4 neuroglioma cells, luminescence (AID 1990); type: functional, cell-based
[2] = Luminescence Cell-Based Dose Response HTS to Identify Inhibitors of 5'UTR Stem-Loop Driven Prion Protein mRNA Translation in H4 Neuroglioblastoma Cells. [Related pubchem assays: 1827 (Project Summary), 1813 (Primary HTS)]; type: functional
[3] = inhibitors of SNCA 5'UTR-driven reporter translation, confirmation, H4 neuroglioma cells, luminescence (AID 1988); type: functional, cell-based
CHO-K1 = experiment: (§1) Counterscreen for antagonists of the orexin 1 receptor (OX1R; HCRTR1): Homogeneous time resolved fluorescence (HTRF)-based cell-based dose response assay to identify antagonists of the parental CHO-K1 cell line. [Related pubchem assays (depositor defined):AID434989, AID435008, AID463079, AID485270, AID492963, AID492964, AID492965, AID493232, AID504699, AID504701]; type: functional; conditions: Cricetulus griseus
[4] = as §1, with “Fluorescence-based” for “Homogeneous time resolved fluorescence (HTRF)-based”, “cell-based high throughput” for “cell-based”, “CHO” for “CHO-K1”; type: functional
[5] = biological target: T1, Orexin/Hypocretin receptor type 1 (Homo sapiens, UniProt O43613); experiment: Homogeneous Time Resolved Fluorescence (HTRF)-based cell-based high throughput dose response assay for antagonists of the orexin 1 receptor (OX1R; HCRTR1). [Related pubchem assays (depositor defined):AID434989, AID435008, AID463079, AID485270, AID492963, AID492964, AID492965, AID493232, AID504717, AID504718]; type: functional
T1 sequence (O43613 whole entry): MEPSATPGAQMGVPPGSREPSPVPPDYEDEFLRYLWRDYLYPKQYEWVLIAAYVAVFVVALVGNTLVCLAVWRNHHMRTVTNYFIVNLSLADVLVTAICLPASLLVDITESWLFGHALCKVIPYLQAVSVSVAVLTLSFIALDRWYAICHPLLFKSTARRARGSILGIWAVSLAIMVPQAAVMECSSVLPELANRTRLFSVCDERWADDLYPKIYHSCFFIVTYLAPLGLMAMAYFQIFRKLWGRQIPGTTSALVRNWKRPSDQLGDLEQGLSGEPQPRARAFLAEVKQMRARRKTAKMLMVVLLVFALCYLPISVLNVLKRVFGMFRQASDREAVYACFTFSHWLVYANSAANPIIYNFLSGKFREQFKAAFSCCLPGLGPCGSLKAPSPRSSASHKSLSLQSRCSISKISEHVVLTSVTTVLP

[6] = biological target: T1, Orexin/Hypocretin receptor type 1; experiment: Fluorescence-based cell-based high throughput dose response assay for antagonists of the orexin 1 receptor (OX1R; HCRTR1). [Related pubchem assays (depositor defined):AID434989, AID435008, AID463079, AID485270, AID492963, AID492964, AID492965, AID493232, AID504717, AID504718]; type: functional
Orexin receptor type 2 [7] = biological target: T2, Orexin receptor type 2 (Homo sapiens, UniProt O43614); experiment: Counterscreen assay for antagonists of the orexin 1 receptor (OX1R; HCRTR1): Fluorescence-based cell-based dose response assay for antagonists of the orexin 2 receptor (OX2R; HCRTR2), run by assay provider.; type: functional
T2 sequence (O43614 whole entry): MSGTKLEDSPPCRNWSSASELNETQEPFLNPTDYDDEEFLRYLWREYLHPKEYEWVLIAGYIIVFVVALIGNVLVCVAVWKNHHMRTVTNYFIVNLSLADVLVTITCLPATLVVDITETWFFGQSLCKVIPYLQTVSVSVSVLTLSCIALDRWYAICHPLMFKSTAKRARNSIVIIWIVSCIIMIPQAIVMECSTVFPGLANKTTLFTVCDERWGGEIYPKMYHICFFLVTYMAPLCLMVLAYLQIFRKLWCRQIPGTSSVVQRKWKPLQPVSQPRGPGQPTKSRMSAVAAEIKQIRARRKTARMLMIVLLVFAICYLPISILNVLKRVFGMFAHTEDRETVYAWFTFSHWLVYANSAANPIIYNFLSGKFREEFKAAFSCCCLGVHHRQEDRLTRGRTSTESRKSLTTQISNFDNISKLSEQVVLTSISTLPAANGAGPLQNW

Orexin receptor type 2 [8] = biological target: T2, Orexin receptor type 2; experiment: Counterscreen assay for antagonists of the orexin 1 receptor (OX1R; HCRTR1): Homogeneous Time Resolved Fluorescence (HTRF)-based cell-based dose response assay for antagonists of the orexin 2 receptor (OX2R; HCRTR2), run by assay provider.; type: functional
[9] = biological target: T3, Microphthalmia-associated transcription factor (Homo sapiens, UniProt O75030); experiment: TRPM1 promoter luciferase signal decrease, dose response, MITF inhibitor project, cell-based, SK-MEL-5, cherry-picked, set 3 (AID 493073); type: functional
T3 sequence (O75030 whole entry): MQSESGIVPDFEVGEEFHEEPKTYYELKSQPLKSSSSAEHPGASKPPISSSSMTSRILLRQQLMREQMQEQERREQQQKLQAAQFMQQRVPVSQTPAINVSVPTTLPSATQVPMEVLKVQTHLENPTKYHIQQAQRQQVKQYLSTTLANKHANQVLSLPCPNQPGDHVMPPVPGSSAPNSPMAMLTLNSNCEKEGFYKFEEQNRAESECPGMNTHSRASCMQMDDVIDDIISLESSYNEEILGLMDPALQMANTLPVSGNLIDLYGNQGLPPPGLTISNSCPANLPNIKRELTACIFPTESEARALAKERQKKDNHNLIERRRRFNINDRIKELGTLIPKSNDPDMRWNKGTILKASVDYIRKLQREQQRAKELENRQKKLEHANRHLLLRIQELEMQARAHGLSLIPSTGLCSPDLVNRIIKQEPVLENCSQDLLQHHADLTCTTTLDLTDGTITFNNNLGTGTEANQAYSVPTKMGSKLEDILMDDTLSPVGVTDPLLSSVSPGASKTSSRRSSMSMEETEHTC

CHO = experiment: cytotoxicity in TLR9-MyD88 CHO cells, dose response, cytotoxicity control for TLR9-MyD88 binding inhibitor project, cell-based, luminescence (AID 588339); type: functional, hamster; conditions: Cricetulus griseus;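 note: CHO cells stably coexpressing TLR9 and MyD88 fusions from primary screen; compound exposure lasted 48 hours before viability readout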
[10] = biological target: Heat shock protein HSP 90-alpha (Homo sapiens, UniProt P07900); type: functional, organism-based
Beta Lactamase = Beta Lactamase (Pseudomonas aeruginosa, UniProt Q932Y6); experiment: beta-lactamase reporter inhibitor potency, dose response, artefact control for TLR9-MyD88 binding inhibitor project, BLA reporter cells, FRET fluorescence (AID 588341); type: cell-based;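 note: cell based assay in CHO-K1 cells stably expressing beta-lactamase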
Chain of Beta Lactamase (Q932Y6 whole entry): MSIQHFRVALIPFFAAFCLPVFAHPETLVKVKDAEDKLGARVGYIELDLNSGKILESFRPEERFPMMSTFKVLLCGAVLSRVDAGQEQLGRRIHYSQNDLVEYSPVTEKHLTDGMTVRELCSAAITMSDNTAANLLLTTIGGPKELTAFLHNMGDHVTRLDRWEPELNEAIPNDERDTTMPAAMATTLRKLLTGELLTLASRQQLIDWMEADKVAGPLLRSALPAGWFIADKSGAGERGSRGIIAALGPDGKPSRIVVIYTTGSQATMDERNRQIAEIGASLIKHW

[11] = biological target: Latent membrane protein 1 (Human herpesvirus 4 (strain B95-8), UniProt P03230); experiment: TES1-eGFP NF-kB reporter inhibition versus Tet-On dsRED, dose response, selectivity assay for LMP1 NF-kB inhibitor project, imaging, HEK293T, dual-color eGFP/dsRED, cherry-picks (AID 588398); type: functional, cell-based
Chain of Latent membrane protein 1 (P03230 whole entry): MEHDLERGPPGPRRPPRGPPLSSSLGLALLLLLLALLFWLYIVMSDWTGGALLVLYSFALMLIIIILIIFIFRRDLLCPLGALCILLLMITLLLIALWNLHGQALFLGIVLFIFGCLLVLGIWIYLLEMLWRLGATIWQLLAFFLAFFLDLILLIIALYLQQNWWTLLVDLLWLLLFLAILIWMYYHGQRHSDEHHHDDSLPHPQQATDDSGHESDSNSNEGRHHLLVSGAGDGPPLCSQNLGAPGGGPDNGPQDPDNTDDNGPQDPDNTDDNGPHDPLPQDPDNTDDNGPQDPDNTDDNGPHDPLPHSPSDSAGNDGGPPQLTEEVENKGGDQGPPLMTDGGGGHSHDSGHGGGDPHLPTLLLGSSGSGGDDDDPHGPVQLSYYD

[12] = biological target: T4, Delta-type opioid receptor (Homo sapiens, UniProt P41143); experiment: HTS Image-Based Screen for Antagonists of the DOR Receptor. [Related pubchem assays (depositor defined):AID1777, AID1785, AID1786, AID2133]; type: functional
T4 sequence (P41143 whole entry): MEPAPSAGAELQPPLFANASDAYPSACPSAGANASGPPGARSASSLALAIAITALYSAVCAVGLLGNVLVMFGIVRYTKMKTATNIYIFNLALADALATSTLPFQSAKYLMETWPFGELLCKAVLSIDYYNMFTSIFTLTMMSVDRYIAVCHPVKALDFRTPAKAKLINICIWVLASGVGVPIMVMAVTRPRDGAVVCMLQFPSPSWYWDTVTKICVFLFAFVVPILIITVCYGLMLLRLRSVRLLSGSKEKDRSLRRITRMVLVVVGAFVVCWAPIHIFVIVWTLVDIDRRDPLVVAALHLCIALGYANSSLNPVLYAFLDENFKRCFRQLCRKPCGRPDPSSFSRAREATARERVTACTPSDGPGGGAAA

Mu-type opioid receptor = Mu-type opioid receptor (Homo sapiens, UniProt P35372); experiment: HTS Image-Based Screen for Agonists of the MOR Receptor. [Related pubchem assays (depositor defined):AID1777, AID1785, AID1786, AID2133]; type: functional;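 note: imaging of beta-arrestin GFP recruitment into spots after receptor activation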
Chain of Mu-type opioid receptor (P35372 whole entry): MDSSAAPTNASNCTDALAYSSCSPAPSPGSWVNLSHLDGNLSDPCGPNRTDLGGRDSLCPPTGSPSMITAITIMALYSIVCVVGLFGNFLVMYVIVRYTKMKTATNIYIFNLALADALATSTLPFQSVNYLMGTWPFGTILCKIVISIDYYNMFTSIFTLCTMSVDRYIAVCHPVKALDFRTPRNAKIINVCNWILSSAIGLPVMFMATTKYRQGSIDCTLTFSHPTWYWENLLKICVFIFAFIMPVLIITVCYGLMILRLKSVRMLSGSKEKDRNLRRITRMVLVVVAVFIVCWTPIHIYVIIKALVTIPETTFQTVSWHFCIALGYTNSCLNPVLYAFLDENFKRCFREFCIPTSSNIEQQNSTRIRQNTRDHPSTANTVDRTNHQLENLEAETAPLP

[13] = biological target: T4, Delta-type opioid receptor; experiment: HTS Image-Based Screen for Agonists of the DOR Receptor. [Related pubchem assays (depositor defined):AID1777, AID1786, AID2133]; type: functional
Beta-galactosidase [14] = biological target: T5, Beta-galactosidase (Escherichia coli, UniProt Q8VNN2); experiment: PubChem AID 485352; type: functional
T5 sequence (Q8VNN2 whole entry): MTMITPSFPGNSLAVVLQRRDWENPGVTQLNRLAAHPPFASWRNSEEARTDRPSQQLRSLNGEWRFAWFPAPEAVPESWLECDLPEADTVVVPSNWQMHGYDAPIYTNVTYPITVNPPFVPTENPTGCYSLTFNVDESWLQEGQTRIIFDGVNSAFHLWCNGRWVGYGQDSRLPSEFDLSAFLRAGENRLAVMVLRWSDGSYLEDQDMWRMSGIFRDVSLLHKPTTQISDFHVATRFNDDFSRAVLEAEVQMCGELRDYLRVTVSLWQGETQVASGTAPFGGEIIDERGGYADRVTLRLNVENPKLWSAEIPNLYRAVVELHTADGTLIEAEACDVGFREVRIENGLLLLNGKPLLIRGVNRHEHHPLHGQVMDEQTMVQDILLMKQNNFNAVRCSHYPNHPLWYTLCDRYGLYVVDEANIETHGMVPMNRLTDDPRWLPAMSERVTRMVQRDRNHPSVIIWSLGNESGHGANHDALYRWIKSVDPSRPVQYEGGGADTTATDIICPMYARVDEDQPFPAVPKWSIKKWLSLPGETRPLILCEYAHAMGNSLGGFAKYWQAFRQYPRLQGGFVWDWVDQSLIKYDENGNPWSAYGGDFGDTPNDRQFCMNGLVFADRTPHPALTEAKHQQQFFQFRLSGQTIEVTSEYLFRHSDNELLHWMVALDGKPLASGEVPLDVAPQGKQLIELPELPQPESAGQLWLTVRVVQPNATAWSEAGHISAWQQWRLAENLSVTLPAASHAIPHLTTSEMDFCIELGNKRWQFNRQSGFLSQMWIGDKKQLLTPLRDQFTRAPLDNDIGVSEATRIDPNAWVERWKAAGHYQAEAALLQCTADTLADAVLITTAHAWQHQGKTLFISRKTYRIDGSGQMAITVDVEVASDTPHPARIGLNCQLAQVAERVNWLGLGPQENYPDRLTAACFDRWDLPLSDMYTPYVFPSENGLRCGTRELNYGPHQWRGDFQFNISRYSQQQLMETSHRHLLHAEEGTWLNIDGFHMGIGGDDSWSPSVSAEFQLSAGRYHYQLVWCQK

Vero = experiment: host cell cytotoxicity of antiviral hits, dose response, cytotoxicity control for West Nile virus antiviral project, secondary assay (AID 1650); type: functional; conditions: Chlorocebus sabaeus
[15] = Luminescence-based dose response cell-based high throughput screening assay for cytotoxic compounds using the IEC-6 intestinal epithelial cell line. [Related pubchem assays: 1858 (Summary AID.), 1825 (Counterscreen.), 1907 (Confirmation screen.)]; type: functional
[16] = biological target: T6, Type-1 angiotensin II receptor (Homo sapiens, UniProt P30556); experiment: AT1 receptor antagonists, dose response, selectivity assay for APJ receptor antagonist project, cell-based, uHTS hits (AID 463214); type: functional;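 note: antagonist potency against angiotensin II stimulated AT1 response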
T6 sequence (P30556 whole entry): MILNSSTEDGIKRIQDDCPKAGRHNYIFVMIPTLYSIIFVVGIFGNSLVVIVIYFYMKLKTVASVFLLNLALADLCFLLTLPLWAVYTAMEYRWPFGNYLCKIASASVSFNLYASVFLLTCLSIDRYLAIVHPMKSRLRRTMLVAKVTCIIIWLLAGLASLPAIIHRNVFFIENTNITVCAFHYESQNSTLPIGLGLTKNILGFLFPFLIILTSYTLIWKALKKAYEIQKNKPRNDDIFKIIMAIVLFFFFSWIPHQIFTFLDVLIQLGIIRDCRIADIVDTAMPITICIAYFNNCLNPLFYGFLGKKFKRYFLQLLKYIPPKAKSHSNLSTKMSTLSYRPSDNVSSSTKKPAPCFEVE

[17] = growth suppression of PTEN-null colon cells, dose response, cell-based, HCT116 PTEN knockout (AID 1047); type: functional;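 note: HCT116 colon tumor cells with PTEN knocked out; cells exposed to compound for 60 hours before readout; potency for loss of cell viability measured by luminescence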
[18] = biological target: Kappa-type opioid receptor (Homo sapiens, UniProt P41145); type: functional
Chain of Kappa-type opioid receptor (P41145 whole entry): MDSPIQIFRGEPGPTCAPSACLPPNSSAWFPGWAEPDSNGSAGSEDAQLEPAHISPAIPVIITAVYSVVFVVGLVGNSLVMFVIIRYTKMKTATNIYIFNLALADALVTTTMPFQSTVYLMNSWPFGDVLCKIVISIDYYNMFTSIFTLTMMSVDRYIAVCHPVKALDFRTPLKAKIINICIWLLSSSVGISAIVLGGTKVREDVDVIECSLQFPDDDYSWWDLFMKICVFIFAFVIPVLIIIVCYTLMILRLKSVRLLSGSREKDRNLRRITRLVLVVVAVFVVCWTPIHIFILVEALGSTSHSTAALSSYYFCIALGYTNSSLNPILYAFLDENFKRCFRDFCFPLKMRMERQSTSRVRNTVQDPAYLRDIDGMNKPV

[19] = biological target: T7, Sphingosine 1-phosphate receptor 4 (Homo sapiens, UniProt O95977); experiment: Late stage fluorescence dose response cell-based screening assay for antagonists of the Sphingosine 1-Phosphate Receptor 4 (S1P4). [Related pubchem assays: 1524 (Confirmation screen (S1P4 antagonists).), 1510 (Primary screen (S1P4 antagonists).), 1853 (Summary AID (S1P4 antagonists).), 1692 (Dose response screen (S1P4 antagonists).)]; type: functional
T7 sequence (O95977 whole entry): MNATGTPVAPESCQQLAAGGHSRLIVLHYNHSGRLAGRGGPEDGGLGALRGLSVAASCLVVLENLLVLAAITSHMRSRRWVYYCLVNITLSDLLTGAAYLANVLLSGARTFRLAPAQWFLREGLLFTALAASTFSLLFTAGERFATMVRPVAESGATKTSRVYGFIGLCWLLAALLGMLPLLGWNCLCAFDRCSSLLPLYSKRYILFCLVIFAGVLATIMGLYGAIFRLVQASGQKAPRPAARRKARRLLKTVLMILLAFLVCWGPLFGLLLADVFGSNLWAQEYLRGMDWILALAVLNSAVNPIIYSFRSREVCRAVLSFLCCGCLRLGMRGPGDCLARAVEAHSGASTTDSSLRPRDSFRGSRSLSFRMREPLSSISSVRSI

Beta-galactosidase [20] = biological target: T5, Beta-galactosidase; type: functional
[21] = growth suppression of beta-catenin-knockout colon cells, dose response, cell-based, HCT116, human colon tumor (AID 1045); type: functional;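 note: HCT116 colon tumor cells with beta catenin knocked out; cells exposed to compound for 60 hours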
[22] = biological target: T7, Sphingosine 1-phosphate receptor 4; experiment: Fluorescence dose response cell-based high throughput screening assay for antagonists of the Sphingosine 1-Phosphate Receptor 4 (S1P4). [Related pubchem assays: 1524 (Confirmation in triplicates.), 1510 (Primary screen.)]; type: functional
[23] = biological target: Sphingosine 1-phosphate receptor 1 (Homo sapiens, UniProt P21453); type: functional;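 note: Tango beta-arrestin reporter U2OS cells stimulated with S1P near its EC80; inhibitor potency meaning antagonism of receptor activation by the natural agonist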
Chain of Sphingosine 1-phosphate receptor 1 (P21453 whole entry): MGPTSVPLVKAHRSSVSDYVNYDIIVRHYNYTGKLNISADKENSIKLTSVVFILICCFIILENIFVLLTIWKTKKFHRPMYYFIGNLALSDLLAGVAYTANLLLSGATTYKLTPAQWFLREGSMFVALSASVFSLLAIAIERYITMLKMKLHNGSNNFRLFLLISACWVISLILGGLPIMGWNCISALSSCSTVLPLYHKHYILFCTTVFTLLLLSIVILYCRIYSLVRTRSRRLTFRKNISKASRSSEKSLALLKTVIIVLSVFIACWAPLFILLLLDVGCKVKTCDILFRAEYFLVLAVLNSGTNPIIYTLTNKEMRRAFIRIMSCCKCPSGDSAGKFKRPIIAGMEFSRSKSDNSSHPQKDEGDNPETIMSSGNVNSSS

HEK293 [24] = experiment: cytotoxicity in HEK293T NF-kB-Luc cells, SAR follow-up, cytotoxicity control for NF-kB activator project, cell-based, resazurin fluorescence (AID 493251); type: functional; conditions: Homo sapiens
Jurkat = experiment: SAR Analysis of small molecule inhibitors of both B-cell and T-cell specific antigen receptor-induced NF-kB activation in a Jurkat cell line using a luminescence assay. [Related pubchem assays (depositor defined):AID435003, AID435022, AID465, AID489029]; type: functional, cell-based; conditions: Homo sapiens
HEK293 [25] = experiment: SAR Analysis of small molecule inhibitors of both B-cell and T-cell specific antigen receptor-induced NF-kB activation in a HEK-293T cell line using a luminescence assay. [Related pubchem assays (depositor defined):AID435003, AID435022, AID465, AID489019, AID489029]; type: functional, cell-based; conditions: Homo sapiens
A-375 [26] = experiment: MITF: Counter assay: A375 proliferation Measured in Cell-Based System Using Plate Reader - 2084-03_Inhibitor_Dose_DryPowder_Activity. [Related pubchem assays (depositor defined):AID488944]; type: functional; conditions: Homo sapiens
A-375 [27] = experiment: A375 melanoma cell viability reduction, dose response, counter-screen for MITF modulator project, cherry-pick samples, set 2 (AID 540335); type: functional, cell-based; conditions: Homo sapiens

In the case of `CN1C(=O)C2(N=c3ccccc3=N2)c2ccccc21`, the EC50 [1] is reported as 79.5 µM (active), the EC50 [2] is reported as > 120 µM (not active) and the EC50 [3] is reported as > 120 µM (not active). For the same compound, the IC50 (CHO-K1) was > 66.2 µM (inactive), the IC50 [4] was > 49.7 µM (inactive) and the IC50 [5] was 3.22 µM (active). For the same compound, the IC50 [6] was 13.8 µM (inactive), the IC50 (Orexin receptor type 2 [7]) was > 88.8 µM (inactive) and the IC50 (Orexin receptor type 2 [8]) was > 50 µM (inactive).
For `O=C(c1ccccc1)c1cc(Cl)ccc1N1C(=O)C=CC1=O`, the AC50 [9] was 11.9 µM (active), the IC50 (CHO) was 2.26 µM (active) and the AC50 [10] was 0.552 µM (active). For the same compound, the IC50 (Beta Lactamase) was 14.7 µM (inactive).
In the case of `OCCN(CCO)CC(O)COCCC12CC3CC(CC(C3)C1)C2` (configuration not stated), the AC50 [11] is reported as 77.6 µM (active).
With `Cc1ccc(S(=O)(=O)Nc2cccc3cccnc23)cc1` the IC50 [12] was > 32 µM (inactive), the EC50 [1] was 13.7 µM (active) and the EC50 (Mu-type opioid receptor) was > 32 µM (inactive). The EC50 [13] was > 32 µM (inactive), the EC50 [2] was 15.2 µM (active) and the EC50 (Beta-galactosidase [14]) was > 40 µM (inactive). For the same compound, the CC50 (Vero) was 6.89 µM (active), the EC50 [3] was 11.5 µM (active) and the IC50 [15] was 1.84 µM (active). The IC50 [16] was 3.67 µM (active), the EC50 [17] was 2.84 µM (active) and the IC50 [18] was 2.57 µM (active). The IC50 [19] was 0.55 µM (active), the EC50 (Beta-galactosidase [20]) was > 31.5 µM (inactive) and the EC50 [21] was 2.5 µM (active). For the same compound, the IC50 [22] was 0.63 µM (active), the IC50 [23] was 1.42 µM (active) and the AC50 [9] was 5.55 µM (active). For the same compound, the IC50 (HEK293 [24]) was 56.8 µM (inactive), the IC50 (Jurkat) was 1.06 µM (active) and the IC50 (HEK293 [25]) was 18.1 µM (active). The AC50 (A-375 [26]) was > 35 µM (active) and the AC50 (A-375 [27]) was > 35 µM (active).

Reference: ChEMBL document CHEMBL1201862, “PubChem BioAssay data set” (2004)
